Results: ChEMBL document CHEMBL1201862, “PubChem BioAssay data set” (2004)
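Briefly, cells in 96-well plates were exposed to five compound concentrations for 48 h, and endpoints were estimated by linear interpolation. GI50 = concentration required for 50% inhibition of growth.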 Calls of active or inactive are those of the source. Rule as the data show it: active = GI50 up to about 1.1 µM and inactive = higher. Residues, ends and D or L forms follow the SMILES beside them. Groups on a side chain read outwards from the residue. *: point of attachment. Cbz = O=C(OCc1ccccc1)*; Boc = CC(C)(C)OC(=O)*

Legend:
Experiment in all cases: DTP human tumour cell line panel, 48 h
K562 = tested on: K562
SF-295 = tested on: SF-295
ACHN = tested on: ACHN
A549 = tested on: A549
HCT-116 = tested on: HCT-116
U-251 = tested on: U-251
MDA-N = tested on: MDA-N
M14 = tested on: M14
SK-MEL-28 = tested on: SK-MEL-28
EKVX = tested on: EKVX
OVCAR-3 = tested on: OVCAR-3
Malme-3M = tested on: Malme-3M
SNB-19 = tested on: SNB-19
PC-3 = tested on: PC-3
T47D = tested on: T47D
NCI-H226 = tested on: NCI-H226
RXF 393 = tested on: RXF 393
HOP-92 = tested on: HOP-92
LOX IMVI = tested on: LOX IMVI
MDA-MB-435 = tested on: MDA-MB-435

SMILES	GI50 (K562)	GI50 (SF-295)	GI50 (ACHN)	GI50 (A549)	GI50 (HCT-116)	GI50 (U-251)	GI50 (MDA-N)	GI50 (M14)	GI50 (SK-MEL-28)	GI50 (EKVX)	GI50 (OVCAR-3)	GI50 (Malme-3M)	GI50 (SNB-19)	GI50 (PC-3)	GI50 (T47D)	GI50 (NCI-H226)	GI50 (RXF 393)	GI50 (HOP-92)	GI50 (LOX IMVI)	GI50 (MDA-MB-435)
O=C(Nc1ccc(Br)c2ccccc12)c1ccc2ccccc2c1O	2.55 µM (inactive)	2.05 µM (inactive)	3.09 µM (inactive)	1.77 µM (inactive)	2.85 µM (inactive)	1.73 µM (inactive)	1.7 µM (inactive)	4.63 µM (inactive)	4.7 µM (inactive)	3.13 µM (inactive)	3.37 µM (inactive)	1.36 µM (inactive)	4.17 µM (inactive)	1.35 µM (inactive)	1.73 µM (inactive)	1.87 µM (inactive)				
CCCCCN(CCCCC)C(=O)[C@H](CCC(=O)O)NC(=O)c1cc2ccccc2[nH]1	34.8 µM (inactive)	57.8 µM (inactive)	49.2 µM (inactive)	88.5 µM (inactive)	28.3 µM (inactive)	35.7 µM (inactive)		59.7 µM (inactive)	29.8 µM (inactive)	> 100 µM (inactive)	42.7 µM (inactive)	94.8 µM (inactive)	35.6 µM (inactive)			36.6 µM (inactive)	33.3 µM (inactive)	32.3 µM (inactive)	> 100 µM (inactive)	
C1COCCSC2=C(SCCO1)SC(=C1SC3=C(SCCOCCOCCS3)S1)S2	> 100 µM (inactive)	50.9 µM (inactive)	> 100 µM (inactive)	> 100 µM (inactive)	> 100 µM (inactive)	49.2 µM (inactive)		> 100 µM (inactive)	> 100 µM (inactive)	> 100 µM (inactive)	> 100 µM (inactive)	98.9 µM (inactive)	73.8 µM (inactive)			> 100 µM (inactive)	32.8 µM (inactive)	44.7 µM (inactive)	> 100 µM (inactive)	
C=CCN1C(=O)/C(=C/c2ccccc2)N=C1SC/C=C/C	0.0146 µM (active)	61.2 µM (inactive)	80.4 µM (inactive)	39.3 µM (inactive)	34.5 µM (inactive)	48.1 µM (inactive)		71.1 µM (inactive)	69.3 µM (inactive)		> 100 µM (inactive)		> 100 µM (inactive)	22.3 µM (inactive)	20.2 µM (inactive)	31.8 µM (inactive)	15.2 µM (inactive)	12.2 µM (inactive)	49.1 µM (inactive)	40.8 µM (inactive)
COc1cc2c(c(C)c1O)[C@H]1COc3ccccc3[C@H]1O2	4.29 µM (inactive)	27 µM (inactive)	21.2 µM (inactive)	13.2 µM (inactive)	5.71 µM (inactive)	> 10 µM (inactive)		8.15 µM (inactive)	12.6 µM (inactive)	12.2 µM (inactive)	21.9 µM (inactive)	22.1 µM (inactive)	1.49 µM (inactive)			6.25 µM (inactive)	9.06 µM (inactive)	19.5 µM (inactive)	3.65 µM (inactive)	
CC(=O)Nc1ccc2cc3c(nc2n1)c1cccnc1n3S(=O)(=O)c1ccccc1	> 100 µM (inactive)	> 100 µM (inactive)	> 100 µM (inactive)	> 100 µM (inactive)	1.36 µM (inactive)	> 100 µM (inactive)	> 100 µM (inactive)	> 100 µM (inactive)	> 100 µM (inactive)	> 100 µM (inactive)	> 100 µM (inactive)	> 100 µM (inactive)	> 100 µM (inactive)	> 100 µM (inactive)		> 100 µM (inactive)	> 100 µM (inactive)	> 100 µM (inactive)	2.66 µM (inactive)	> 100 µM (inactive)
COc1ccc(N2C(=O)C3C=CC(n4[nH]c(=O)n(Cc5ccccc5)c4=O)CC3C2=O)cc1 (stereo not given)	> 100 µM (inactive)	> 100 µM (inactive)	> 100 µM (inactive)	> 100 µM (inactive)	> 100 µM (inactive)	> 100 µM (inactive)		> 100 µM (inactive)	> 100 µM (inactive)	> 100 µM (inactive)	> 100 µM (inactive)	> 100 µM (inactive)	> 100 µM (inactive)			> 100 µM (inactive)	> 100 µM (inactive)	> 100 µM (inactive)	> 100 µM (inactive)	
Cc1c(-c2ccccc2)n(C)c2cn[nH]c(=O)c12	47.3 µM (inactive)	25.2 µM (inactive)	44.3 µM (inactive)	44.8 µM (inactive)	35.9 µM (inactive)	32.3 µM (inactive)	33.5 µM (inactive)	42.5 µM (inactive)	47.3 µM (inactive)	18.1 µM (inactive)	19.7 µM (inactive)	42.6 µM (inactive)	> 100 µM (inactive)	19.7 µM (inactive)				81.1 µM (inactive)	18.7 µM (inactive)	33.1 µM (inactive)
CN(C)Nc1cc(=O)[nH]c(=O)[nH]1	> 100 µM (inactive)	> 100 µM (inactive)	> 100 µM (inactive)	> 100 µM (inactive)	> 100 µM (inactive)	> 100 µM (inactive)	> 100 µM (inactive)	> 100 µM (inactive)	> 100 µM (inactive)	> 100 µM (inactive)	> 100 µM (inactive)	> 100 µM (inactive)	> 100 µM (inactive)	> 100 µM (inactive)		> 100 µM (inactive)	> 100 µM (inactive)	> 100 µM (inactive)	> 100 µM (inactive)	> 100 µM (inactive)
O=C1CSC(c2cccc([N+](=O)[O-])c2)N1c1ccc(-c2ccc(-n3c(-c4ccccc4)nc4ccccc4c3=O)cc2)cc1 (stereo not given)	24.7 µM (inactive)	45.8 µM (inactive)	27 µM (inactive)	34.6 µM (inactive)	24.7 µM (inactive)	33.5 µM (inactive)		36.2 µM (inactive)	43.6 µM (inactive)	36.3 µM (inactive)	23.3 µM (inactive)	29.8 µM (inactive)	59.6 µM (inactive)	21.9 µM (inactive)	17.9 µM (inactive)	44.1 µM (inactive)		> 100 µM (inactive)	34 µM (inactive)	27 µM (inactive)
CCOC(=O)C1(C(=O)OCC)CN(CC)CN(c2ccccc2)C1	39.4 µM (inactive)	> 100 µM (inactive)	19.9 µM (inactive)	22.2 µM (inactive)	48.3 µM (inactive)		35.6 µM (inactive)	19.1 µM (inactive)	18.7 µM (inactive)	17.6 µM (inactive)	18.5 µM (inactive)	38.3 µM (inactive)	> 100 µM (inactive)				17.1 µM (inactive)	16.5 µM (inactive)	91.2 µM (inactive)	19.1 µM (inactive)
Cc1cc(C)n(-c2nc3ccccc3c(=O)[nH]2)n1	1.64 µM (inactive)	2.1 µM (inactive)	2.49 µM (inactive)	2.95 µM (inactive)	1.88 µM (inactive)	3.24 µM (inactive)	32.6 µM (inactive)	3.75 µM (inactive)	6.82 µM (inactive)	5.42 µM (inactive)	4.11 µM (inactive)		11.9 µM (inactive)	5.96 µM (inactive)	11 µM (inactive)			21.7 µM (inactive)	1.41 µM (inactive)	1.86 µM (inactive)
N#CC(=N)c1ncn(-c2ccc(N)cc2)c1N	> 100 µM (inactive)	> 100 µM (inactive)	> 100 µM (inactive)	> 100 µM (inactive)	> 100 µM (inactive)	> 100 µM (inactive)	> 100 µM (inactive)	> 100 µM (inactive)	> 100 µM (inactive)	> 100 µM (inactive)	> 100 µM (inactive)	> 100 µM (inactive)	> 100 µM (inactive)	> 100 µM (inactive)	> 100 µM (inactive)	> 100 µM (inactive)			> 100 µM (inactive)	> 100 µM (inactive)
COC(=O)c1cc(-c2c[nH]cc2C(=O)OCc2ccccc2)cn1S(=O)(=O)c1ccc(C)cc1	7.5 µM (inactive)	> 100 µM (inactive)	> 100 µM (inactive)	> 100 µM (inactive)	> 100 µM (inactive)	> 10 µM (inactive)	> 100 µM (inactive)	> 100 µM (inactive)		8.89 µM (inactive)	> 100 µM (inactive)	> 100 µM (inactive)	> 100 µM (inactive)	36.7 µM (inactive)	4.71 µM (inactive)		> 100 µM (inactive)		22.4 µM (inactive)	
O=C(Nn1c(-c2cccs2)nc2ccc(I)cc2c1=O)c1ccccc1		26.9 µM (inactive)	30.7 µM (inactive)	18.8 µM (inactive)	35.3 µM (inactive)	24.7 µM (inactive)	43.9 µM (inactive)	36.3 µM (inactive)	24.7 µM (inactive)	27.8 µM (inactive)	16.9 µM (inactive)		21.3 µM (inactive)	33.9 µM (inactive)		28.5 µM (inactive)	35.4 µM (inactive)	17.8 µM (inactive)	21.4 µM (inactive)	20.6 µM (inactive)
CC(C)CC(NC(=O)OCc1ccccc1)C(=O)NCCCCC(NC(=O)C(CCCCNC(=O)C(CC(C)C)NC(=O)OCc1ccccc1)NC(=O)C(CCCCNC(=O)C(CC(C)C)NC(=O)OCc1ccccc1)NC(=O)C(CCCCNC(=O)C(CC(C)C)NC(=O)OCc1ccccc1)NC(=O)OC(C)(C)C)C(=O)O (stereo not given) (Boc-K([Leu-Cbz])K([Leu-Cbz])K([Leu-Cbz])K([Leu-Cbz])-OH; configuration not given here)	> 25 µM (inactive)		> 25 µM (inactive)	> 25 µM (inactive)	> 25 µM (inactive)	> 25 µM (inactive)	> 25 µM (inactive)	> 25 µM (inactive)	> 25 µM (inactive)		> 25 µM (inactive)	> 25 µM (inactive)	> 25 µM (inactive)	> 25 µM (inactive)	> 25 µM (inactive)	> 25 µM (inactive)			> 25 µM (inactive)	> 25 µM (inactive)
